Key:
Assay type in all cases: in vivo
[1] = tested on: C. elegans; conditions: 100 mM H2O2 plus supplement (10 mM GA, 100 μM glycine or 500 μM L-serine)
Description: Mitochondrial staining was performed as described previously^3,4. Briefly, L1 worms were grown on plate or in liquid culture for 2-3 days at 15° C. […] Next, the excess dye was washed off with M9 buffer and worms were incubated in 100 μl M9 for 30 min to eliminate the excess dye in the gut. Finally, worms were paralyzed with 0.5 mM Levamizol (Sigma-Aldrich), placed on slides covered with a thin layer of 2% agarose on top of which the coverslip (22×22 mm, Menzel-Glaser no. 1) was fixed using nail polish. We used a Zeiss LSM 700 inverted laser scanning confocal microscope and a Zeiss LCI Plan-Neofluar 63×/1.3 ImmCorr DIC M27 objective to image mitochondria (Zeiss, Germany). MitoTracker Red CMXRos was excited at 555 nm and the emission above 560 nm was acquired by the second PMT. Optical sections at 0.1×0.1×0.5 μm^3 x-y-z resolution were collected in […]. Final images were adjusted for intensity and merged in Fiji. No non-linear adjustments were made.

[2] = tested on: C. elegans; test: Quantification of glutathione (GSH/GSSG-Glo)
Description: Sample preparation was performed as described previously with some modifications^6. From each condition 10,000 synchronized animals were harvested and washed 3 times with sterile water. […] To thoroughly lyse the worms, 5 cycles of freezing and thawing were performed in a water bath at 37° C., followed by a 1-min sonication. The samples were then centrifuged and the supernatant tested for protein estimation and GSH quantification. Total GSH, GSSG, and GSH/GSSG ratios were quantified using the GSH/GSSG-Glo assay kit (Promega) following the instructions of the manufacturer. Briefly, each sample was tested in triplicate in 96-well culture plates with total glutathione or GSSG lysis reagent, for total glutathione or GSSG measurement, respectively. The GSH probe, luciferin-NT, was converted to luciferin, which is coupled to a firefly luciferase. The plates were then read in an […] plate reader (Perkin Elmer, United States). The GSSG value was subtracted from the total glutathione to calculate GSH levels and GSH/GSSG ratio. Four biological replicates were analyzed for each condition.

[3] = tested on: C. elegans; test: H2O2 accumulation in worms (Amplex Red); conditions: co-supplemented with peroxide and GA vs peroxide alone, 3 days
Description: Hydrogen peroxide was measured using the Amplex Red hydrogen peroxide/peroxidase assay kit (Molecular Probes, Eugene, OR), adapting the protocol to C. elegans. In the presence of hydrogen peroxide, Amplex Red is oxidized by horseradish peroxidase to form a red-fluorescent oxidation product whose fluorescence intensity can be measured.
To measure ROS production from C. elegans, 5000-7000 L1 worms were exposed to each condition for 2-3 days as indicated and then washed four times in 1 ml of the reaction buffer supplied with the kit. Volumes were adjusted to 700-1200 nematodes/50 μl and 50 μl was pipetted into a 96-well plate. A total of 50 μl of the Amplex Red reaction buffer was then added to the wells, and after 1 hr fluorescence was measured with a fluorescence microplate reader using excitation at 530±12.5 nm and fluorescence detection at 590±17.5 nm. Background fluorescence, determined for a no-H2O2 control reaction, was subtracted from each value. The significance of differences between conditions was determined by an unpaired fest. GraphPadPrism 8.0 was used for these calculations. Three biological replicates were carried out for each condition.

## O=C(O)CO [GA, glycolic acid]
[1]
  Mitochondrial membrane potential (MMP): prevented this effect
[2]; H2O2+GA, control 107.5
  GSH/GSSG ratio: 77.4
[2]; H2O2 in the presence of GA (10 mM), 3 days
  Total glutathione: 91 % of the control
[2]; H2O2 with addition of GA
  Oxidized form of glutathione (GSSG): 140 % of the control
[2]; peroxide-treated ghpr-1 and ghpr-1, gox-1, ldh-1 mutant strains
  Total glutathione, effect of GA addition: unaffected
[2]; peroxide-treated ghpr-1 and triple mutants co-incubated with GA
  Increase in GSSG, rescue by GA: not rescued
[3]
  Accumulation of H2O2: diminished

— patent US20230414657A1, “Novel compositions for neutralizing toxic effects of hydrogen peroxide in living cells or tissues” (Dzala LLC, priority 2020, published 2023)
